Test results: ChEMBL document CHEMBL1121624, “Synthesis, biological evaluation, and preliminary structure-activity considerations of a series of alkylphenols as intravenous anesthetic agents” (J Med Chem, 1980)

Key:
[1] = Acute toxicity measured as median lethal dose in mice; assay type: organism-based; conditions: mouse, in vivo
Mus musculus [2] = species: Mus musculus; assay: Hypnotic activity was measured as dose which causes loss of righting reflex for a minimum period of 30s in 50% of mice; assay type: functional
Mus musculus [3] = species: Mus musculus; assay: Speed of induction of analgesia in mice was determined; I = immediate, <10 s; assay type: functional, organism-based
Mus musculus [4] = species: Mus musculus; assay: Duration of analgesic action in mice was determined; B = brief, < 5 min; assay type: functional, organism-based
Mus musculus [5] = species: Mus musculus; assay: Hypnotic activity was measured as dose which causes loss of righting reflex for a minimum period of 30s in 50% of mice; Range is 20-30; assay type: functional
Mus musculus [6] = species: Mus musculus; assay: Hypnotic activity was measured as dose which causes loss of righting reflex for a minimum period of 30s in 50% of mice; Range is 10-20; assay type: functional
[7] = Acute toxicity measured as median lethal dose in mice; Range is 100-120; assay type: organism-based; conditions: mouse, in vivo
[8] = (§1) Acute toxicity measured as median lethal dose in mice; Range is 80-90; assay type: organism-based; conditions: mouse, in vivo
Mus musculus [9] = species: Mus musculus; assay: Hypnotic activity was measured as dose which causes loss of righting reflex for a minimum period of 30s in 50% of mice; Range is 20-25; assay type: functional
Mus musculus [10] = species: Mus musculus; assay: Duration of analgesic action in mice was determined; M = moderate, 5-10 min; assay type: functional, organism-based
Mus musculus [11] = species: Mus musculus; assay: Speed of induction of analgesia in mice was determined; VS = very slow, > 15s; assay type: functional, organism-based
Mus musculus [12] = species: Mus musculus; assay: Hypnotic activity was measured as dose which causes loss of righting reflex for a minimum period of 30s in 50% of mice; Range is 40-60; assay type: functional
Mus musculus [13] = species: Mus musculus; assay: Hypnotic activity was measured as dose which causes loss of righting reflex for a minimum period of 30s in 50% of mice; Range is 30-40; assay type: functional
Mus musculus [14] = species: Mus musculus; assay: Speed of induction of analgesia in mice was determined; S = slow, 10-15 s; assay type: functional, organism-based
Mus musculus [15] = species: Mus musculus; assay: Hypnotic activity was measured as dose which causes loss of righting reflex for a minimum period of 30s in 50% of mice; Range is 15-20; assay type: functional
Mus musculus [16] = species: Mus musculus; assay: Hypnotic activity was measured as dose which causes loss of righting reflex for a minimum period of 30s in 50% of mice; Range is 80-100; assay type: functional
Mus musculus [17] = species: Mus musculus; assay: Duration of analgesic action in mice was determined; L = long, >10; assay type: functional, organism-based
Mus musculus [18] = species: Mus musculus; assay: Hypnotic activity was measured as dose which causes loss of righting reflex for a minimum period of 30s in 50% of mice; Range is 5-10; assay type: functional
[19] = Acute toxicity measured as median lethal dose in mice; Range is 140-160; assay type: organism-based; conditions: mouse, in vivo
[20] = Acute toxicity measured as median lethal dose in mice; Range is 120-140; assay type: organism-based; conditions: mouse, in vivo
[21] = Acute toxicity measured as median lethal dose in mice; […]; assay type: organism-based; conditions: mouse, in vivo
Mus musculus [22] = species: Mus musculus; assay: Hypnotic activity was measured as dose which causes loss of righting reflex for a minimum period of 30s in 50% of mice; Range is 20-40; assay type: functional
[23] = Acute toxicity measured as median lethal dose in mice; Range is 40-60; assay type: organism-based; conditions: mouse, in vivo
Mus musculus [24] = species: Mus musculus; assay: as §1; assay type: organism-based; conditions: in vivo

## Oc1ccccc1 [PHENOL]
[1]
  LD50: 100 mg/kg
Mus musculus [2]
  HD50: 70 mg/kg

## Cc1ccc(O)c(C(C)(C)C)c1
Mus musculus [2]
  HD50: 30 mg/kg

## CCCc1cccc(C(C)C)c1O
[1]
  LD50: 80 mg/kg
Mus musculus [3]
  Speed of induction: Immediate
Mus musculus [4]
  Duration of action: Brief duration
Mus musculus [5]
  HD50: 20 mg/kg

## CCCC(C)c1cccc(CC)c1O (stereo not given)
Mus musculus [6]
  HD50: 10 mg/kg
[7]
  LD50: 100 mg/kg
Mus musculus [3]
  Speed of induction: Immediate
Mus musculus [4]
  Duration of action: Brief duration

## Cc1cccc(C)c1O
Mus musculus [3]
  Speed of induction: Immediate induction
Mus musculus [4]
  Duration of action: Brief duration
Mus musculus [5]
  HD50: 20 mg/kg

## CCCC(C)C1(CC)C(=O)[N-]C(=S)NC1=O.[Na+] (stereo in doubt; form 2) [THIOPENTAL SODIUM]
[8]
  LD50: 80 mg/kg
Mus musculus [9]
  HD50: 20 mg/kg

## CCCCC(C)c1cccc(CCC)c1O (stereo not given)
Mus musculus [10]
  Duration of action: Moderate
[1]
  LD50: 140 mg/kg
Mus musculus [11]
  Speed of induction: Very slow
Mus musculus [2]
  HD50: 50 mg/kg

## CC(C)(C)c1ccc(O)c(C(C)(C)C)c1
Mus musculus [12]
  HD50: 40 mg/kg
[7]
  LD50: 100 mg/kg

## Cc1ccc(O)c(C)c1
Mus musculus [13]
  HD50: 30 mg/kg
[7]
  LD50: 100 mg/kg

## Cc1ccc(C(C)C)c(O)c1 [THYMOL]
Mus musculus [2]
  HD50: 30 mg/kg

## CCCc1cccc(CCC)c1O
[1]
  LD50: 100 mg/kg
Mus musculus [3]
  Speed of induction: Immediate
Mus musculus [4]
  Duration of action: Brief duration
Mus musculus [5]
  HD50: 20 mg/kg

## CCCCc1cccc(C(C)CC)c1O (stereo not given)
Mus musculus [10]
  Duration of action: Moderate
[1]
  LD50: 120 mg/kg
Mus musculus [11]
  Speed of induction: Very slow
Mus musculus [5]
  HD50: 20 mg/kg

## CCc1cccc(CC)c1O
Mus musculus [14]
  Speed of induction: Slow induction
Mus musculus [15]
  HD50: 15 mg/kg
[1]
  LD50: 100 mg/kg
Mus musculus [4]
  Duration of action: Brief duration

## CCCCc1cccc(C(C)C)c1O
[1]
  LD50: 100 mg/kg
Mus musculus [3]
  Speed of induction: Immediate
Mus musculus [4]
  Duration of action: Brief duration
Mus musculus [2]
  HD50: 20 mg/kg

## CC(C)c1ccccc1O
Mus musculus [13]
  HD50: 30 mg/kg
[7]
  LD50: 100 mg/kg

## C=CCC1(C(C)C#CCC)C(=O)NC(=O)N(C)C1=O (stereo not given)
Mus musculus [3]
  Speed of induction: Immediate
Mus musculus [4]
  Duration of action: Brief duration

## Cc1cc(C(C)(C)C)c(O)c(C(C)(C)C)c1 [BUTYLATED HYDROXYTOLUENE]
Mus musculus [16]
  HD50: 80 mg/kg

## CC(C)c1cccc(C2CCCCC2)c1O
Mus musculus [14]
  Speed of induction: Slow
Mus musculus [13]
  HD50: 30 mg/kg
Mus musculus [17]
  Duration of action: Long
[7]
  LD50: 100 mg/kg

## CC(C)c1ccc(O)c(C(C)C)c1
[1]
  LD50: 120 mg/kg
Mus musculus [12]
  HD50: 40 mg/kg

## CCCc1cccc(C(C)CC)c1O (stereo not given)
Mus musculus [14]
  Speed of induction: Slow
Mus musculus [6]
  HD50: 10 mg/kg
[1]
  LD50: 120 mg/kg
Mus musculus [4]
  Duration of action: Brief duration

## C=CCC1(C(C)C#CCC)C(=O)N=C([O-])N(C)C1=O.[Na+] (stereo not given) [METHOHEXITAL SODIUM]
Mus musculus [18]
  HD50: 5 mg/kg
[1]
  LD50: 30 mg/kg

## Cc1cccc(C2CCCCC2)c1O
Mus musculus [11]
  Speed of induction: Very slow
Mus musculus [13]
  HD50: 30 mg/kg
Mus musculus [4]
  Duration of action: Brief duration
[19]
  LD50: 140 mg/kg

## CC(C)c1cccc(C2CC2)c1O
Mus musculus [3]
  Speed of induction: Immediate
Mus musculus [4]
  Duration of action: Brief duration
Mus musculus [5]
  HD50: 20 mg/kg
[20]
  LD50: 120 mg/kg

## Cc1cc(C(C)(C)C)ccc1O
[21]
  LD50: 180 mg/kg
Mus musculus [2]
  HD50: 80 mg/kg

## CCC(C)c1cccc(C(C)C)c1O (stereo not given)
Mus musculus [18]
  HD50: 5 mg/kg
[1]
  LD50: 50 mg/kg
Mus musculus [3]
  Speed of induction: Immediate
Mus musculus [4]
  Duration of action: Brief duration

## CCCCc1cccc(CCC)c1O
Mus musculus [11]
  Speed of induction: Very slow
Mus musculus [22]
  HD50: 20 mg/kg
[7]
  LD50: 100 mg/kg
Mus musculus [4]
  Duration of action: Brief duration

## CCC(C)c1ccc(O)cc1 (stereo not given)
[23]
  LD50: 40 mg/kg

## CC(C)(C)c1cccc(C(C)(C)C)c1O
[1]
  LD50: 120 mg/kg
Mus musculus [16]
  HD50: 80 mg/kg

## CCCC(C)C1(CC)C(=O)[N-]C(=S)NC1=O.[Na+] (stereo in doubt; form 1) [THIOPENTAL SODIUM]
Mus musculus [24]
  LD50: 80 mg/kg
